Where a name gives a salt, the structure may show the parent alone.
Key:
[1] = in vivo; cited from earlier work
[2] = test system: human phosphodiesterase III (PDE III); test: PDE III inhibition; assay type: biochemical
Description: In early volunteer trials, the most frequently reported adverse effects AEs other than headache were palpitations, postural dizziness and nausea. During patient studies, the most frequently reported drug-related AEs were headache, palpitations, oedema/fluid retention, nausea/vomiting, diarrhea, dizziness and abdominal pain. These effects are all likely to arise from the secondary, cardiovascular pharmacology associated with anagrelide resulting from its inhibitory effects on human phosphodiesterase III (PDE III). […] Inhibition of myocardial PDE III leads to positive inotropy (increasing of the force of contractions of the heart), increased chronotropy (increase in heart rate), and peripheral vasodilatation. Such cardiovascular manifestations of this inhibition are typically seen with the classical positive inotropes, milrinone and enoximone, and exploited in the short-term acute treatment of congestive heart failure. However, in the treatment of a so-called silent disease (i.e., asymptomatic) such as ET, the cardiovascular side-effects of palpitations and tachycardia associated with anagrelide limit its utility and a significant proportion of patients—reportedly between 25 and 50%—fail to tolerate the drug during long term treatment.

[3] = Pharmacokinetics in humans; assay type: in vivo, human; details: after anagrelide treatment
Description: The metabolism of anagrelide generally proceeds extremely rapidly, resulting in a less than ideal pharmacokinetic profile of the drug. […] This, combined with the side-effects profile, can lead to poor patient compliance. Furthermore, anagrelide undergoes a large first pass effect (>50%) leading to considerable intersubject variation in achieved exposures and, therefore, potentially variable drug response. Also, exposure to the pharmacologically active metabolite varies dramatically between patients since its formation is dependent on CYP1A, an enzyme whose expression is highly dependent on exposure to inducing agents such as cigarette smoke. Overall, this may result in the need for careful dose titration in patients being treated with anagrelide.

[4] = test system: human megakaryocytopoiesis; details: cited from earlier work
[5] = test system: erythroid or myelomonocytic differentiation; details: stimulated by erythropoietin or granulocyte-macrophage colony-stimulating factor; cited from earlier work
[6] = biological target: human phosphodiesterase III (PDE III); details: cited from earlier work

potency as PDE III inhibitor relative to anagrelide [2] | exposure in vivo relative to the parent drug [3] | Compound | typical half-life [1] [h] | potency of inhibition of megakaryocytopoiesis relative to the parent drug [4] | effect on erythroid or myelomonocytic differentiation [5] | first pass effect [1] [%] | IC50 [6] [nM] | IC50 ([4]; in vitro, dose-dependent, read-out: estimated IC50, inhibition of TPO-induced megakaryocytopoiesis) [nM]
over 40 fold | 2-3 fold | O=C1NC2=Nc3ccc(Cl)c(Cl)c3CN2C1O (stereo not drawn) [3-hydroxyanagrelide] | 2.5 | no more potent than the parent drug | – | – | – | –
– | – | O=C1CN2Cc3c(ccc(Cl)c3Cl)N=C2N1 [Anagrelide, 6,7-dichloro-1,5-dihydroimidazo[2,1-b]-quinazolin-2(3H)-one hydrochloride monohydrate] | – | – | does not affect | > 50 | ~29 | ~26
– | – | Cc1[nH]c(=O)c(C#N)cc1-c1ccncc1 [milrinone] | – | – | – | – | 170 to 350 | –

Source: US20110086851A1, “SUBSTITUTED QUINAZOLINES AND THEIR USES FOR MYEOLOPROLIFIC AND THROMBOTIC DISEASES” (priority 2008, published 2011)
